According to patent US12286429B2, “5-oxo-1,2,3,5,8,8a-hexahydroindolizine-3-carboxamide derivatives useful as a factor XIa inhibitors” (Janssen Pharmaceutica NV, priority 2021, dated 2025):

How the values were obtained:
[1] = target: human plasma kallikrein (Homo sapiens, UniProt P03952); assay: Kallikrein inhibition assay utilizing a quenched AMC peptide substrate (FLINT); assay type: biochemical; settings: 11-point, 3-fold serial dilution, top 1 μM; 30 min preincubation; 2 nM kallikrein; 50 μM Z-Gly-Pro-Arg-AMC; kinetic reads over 30 min
Experimental: Biological Example 2: Kallikrein Inhibition Assay Utilizing a Quenched AMC Peptide Substrate
A fluorescence intensity (FLINT) based assay was used to monitor inhibition of human plasma kallikrein. The peptide substrate, Z-Gly-Pro-Arg-AMC (Purchased from Bachem; Catalog #I-1150) was chosen based on its relatively low KM for kallikrein which enables running the assay at lower substrate concentrations to control background fluorescence. The kinetic parameters for this substrate were determined by fitting titration data to the Michaelis-Menten equation yielding a KM=40 μM, kcat=0.76 s^−1, and kcat/KM=18932 M^−1s^−1.
The Kallikrein FLINT assay was used with the following Z-Gly-Pro-Arg-AMC assay buffer: 50 mM Tris, pH 7.5, 100 mM NaCl, 5 mM CaCl2, 0.1 mg/mL BSA, 0.03% CHAPS. Assay buffer was prepared by mixing all ingredients fresh. 2× Z-Gly-Pro-Arg-AMC peptide substrate was prepared by diluting 10 mM stock into 1× assay buffer for a 100 μM working concentration (50 μM final concentration). The 2× kallikrein stock solution was prepared by diluting 14.76 μM stock in 1× assay buffer for a 4 nM working stock solution (2 nM final concentration).
Test compound(s) were run in an 11-point, 3-fold serial dilution with a final top compound concentration of 1 μM. Final DMSO in assay was 2%. Plasma kallikrein was pre-incubated for 30-minute with compound and then 50 μM substrate was added to initiate the reaction. The assay was run with kinetic (KIN) reads at 5 min intervals over 30 minutes. The time course was linear using 2 nM kallikrein greater than 30 minutes. More specifically, the assay was run as follows: • 100 nL of 0.1 mM test compound was dispensed into black 384-well non-binding Greiner BioOne 784900 plate for 1 μM final concentration; • 5 μL of 1× assay buffer was dispensed to columns 24 (low control) and 5 μL 2× human kallikrein enzyme solution was dispensed to columns 1-23 (column 23 high control); • the plate was centrifuged with a “cover” plate at 500 rpm for 1 min • the plate was pre-incubated for 30 minutes at room temperature with plate covered; • 5 μL of 2× Z-Gly-Pro-Arg-AMC peptide substrate was dispensed into the entire plate, columns 1-24; • the plate was centrifuged with a “cover” plate at 500 rpm for 1 min; • the plate was read monitoring fluorescence intensity on the BMG PHERAStar at room temperature, using fluorescence module 340 nm/440 nm.
(§1) Percent inhibition (IC50) curves were generated per compound tested, and data was analyzed using a 4-parameter logistic fit using GeneData Screener. The relative fluorescence unit (RFU) values were normalized to percent inhibition using the following equation: % inhibition=((HC−LC)−(compound−LC)/(HC−LC))*100
where LC—low control=mean signal of […] 100% inhibition of human kallikrein enzyme; HC—high control=mean signal of […]+Z-Gly-Pro-Arg-AMC peptide substrate with DMSO only.
(§2) An 11-point dose response curve for the test compound(s) was generated using GENDATA to determine IC50 value based on the following equation: Y=Bottom+(Top−Bottom)/(1+10^((log IC50−X)*HillSlope))
(§3) where Y is the % inhibition in the presence of X inhibitor concentration, Top=high control=mean signal of human kallikrein enzyme+Z-Gly-Pro-Arg-AMC peptide substrate with DMSO only; Bottom=low control—mean signal of no human kallikrein enzyme or 100% inhibition of human kallikrein enzyme; HillSlope—Hill coefficient; and IC50=concentration of compound with 50% inhibition in relation to top/high control.

[2] = target: Factor XIa (Homo sapiens, UniProt P03951); assay: Factor XIa inhibition assay utilizing a fluorophore-quencher pair peptide substrate (FLINT); assay type: biochemical; settings: 11-point, 3-fold serial dilution, top 100 nM; 30 min preincubation; 15 μM 5Fam-KLTRAETV-K5Tamra substrate; kinetic reads over 30 min; read-out: FXIa Inhibition IC50
Text: Biological Example 1: Factor XIa Inhibition Assay Utilizing a Fluorophore-Quencher Pair Peptide Substrate
A fluorescence intensity (FLINT) based assay was used to monitor inhibition of Factor XIa. The peptide substrate, 5Fam-KLTRAETV-K5Tamra (purchased from New England Peptide) was chosen based on the FXI sequence. Conversion of zymogen FXI to its activated form, FXIa, occurs by proteolytic cleavage by […] at two sites, Arg146 and Arg180. The custom peptide used in this assay was based on the Arg146 cleavage site of FXI. The peptide substrate was designed with a fluorophore-quencher pair, where the fluorescence is quenched until FXIa cleaves the 8-mer peptide after the Arg residue.
The Factor XIa FLINT assay was used with the following 5Fam-KLTRAETV-K5Tamra assay buffer: 50 mM Tris, pH 7.5, 100 mM NaCl, 5 mM CaCl2, 0.1 mg/mL BSA, 0.03% CHAPS. Assay buffer was prepared by mixing all ingredients fresh. 5Fam-KLTRAETV-K5Tamra peptide substrate was first prepared at 10 mM in 100% DMSO, then diluted to 3 mM in 100% DMSO. Assay buffer was then added directly to the 3 mM stock of substrate to prepare the 30 μM 2× working concentration (15 μM final concentration). The 2× Factor XIa stock solution was prepared by diluting 6.562 μM stock in 1× assay buffer for a […].
Test compound(s) were run in an 11-point, 3-fold serial dilution with a final top compound concentration of 100 nM. Final DMSO in assay was 2%. FXIa was preincubated with compound for 30-minutes and then substrate was added to initiate the reaction. The assay was run with kinetic (KIN) reads at 5 min intervals over 30 minutes. […] More specifically, the assay was run as follows: • 100 nL of 0.01 mM test compound was dispensed into black 384-well non-binding Greiner BioOne 784900 plate for 0.1 μM final concentration, • 5 μL of 1× assay buffer was dispensed to column 24 (low control) and 5 μL 2× Factor XIa solution was dispensed to columns 1-23 (column 23 high control); • the plate was centrifuged with a “cover” plate at 500 rpm for 1 min • the plate was pre-incubated for 30 minutes at room temperature with plate covered; • 5 μL of 2×5Fam-KLTRAETV-K5Tamra peptide substrate was dispensed into the entire plate, columns 1-24; • the plate was centrifuged with a “cover” plate at 500 rpm for 1 min; • the plate was read monitoring fluorescence intensity on the BMG PHERAStar at room temperature, using fluorescence module 485 nm/520 nm.
as §1
where LC—low control=mean signal of no Factor XIa or 100% inhibition of Factor XIa; HC—high control=mean signal of Factor XIa+5Fam-KLTRAETV-K5Tamra peptide substrate with DMSO only.
as §2
as §3, with “Factor XIa+5Fam-KLTRAETV-K5Tamra” for “human kallikrein enzyme+Z-Gly-Pro-Arg-AMC”, “Factor XIa” for “human kallikrein enzyme”, “Factor XIa;” for “human kallikrein enzyme;”

Chain of human plasma kallikrein (P03952 391-638 limits assumed): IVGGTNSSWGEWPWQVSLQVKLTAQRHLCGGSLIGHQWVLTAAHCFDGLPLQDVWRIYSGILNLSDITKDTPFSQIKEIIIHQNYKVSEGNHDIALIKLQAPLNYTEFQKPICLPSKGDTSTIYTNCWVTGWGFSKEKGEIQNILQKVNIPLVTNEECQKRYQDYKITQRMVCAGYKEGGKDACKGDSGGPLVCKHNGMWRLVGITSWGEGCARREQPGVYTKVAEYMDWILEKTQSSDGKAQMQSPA
Chain of human plasma kallikrein (P03952 20-390 partner limits assumed): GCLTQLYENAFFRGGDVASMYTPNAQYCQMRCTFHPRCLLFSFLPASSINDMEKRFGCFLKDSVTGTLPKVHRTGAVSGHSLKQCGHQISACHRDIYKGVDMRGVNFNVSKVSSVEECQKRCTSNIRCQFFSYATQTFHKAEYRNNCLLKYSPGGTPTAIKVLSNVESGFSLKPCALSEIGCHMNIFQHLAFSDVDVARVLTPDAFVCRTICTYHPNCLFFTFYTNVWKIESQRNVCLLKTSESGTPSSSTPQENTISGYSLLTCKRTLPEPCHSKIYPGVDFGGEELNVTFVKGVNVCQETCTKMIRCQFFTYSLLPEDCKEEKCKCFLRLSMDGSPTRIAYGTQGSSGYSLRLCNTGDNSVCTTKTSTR
Chain of Factor XIa (P03951 388-625 limits assumed): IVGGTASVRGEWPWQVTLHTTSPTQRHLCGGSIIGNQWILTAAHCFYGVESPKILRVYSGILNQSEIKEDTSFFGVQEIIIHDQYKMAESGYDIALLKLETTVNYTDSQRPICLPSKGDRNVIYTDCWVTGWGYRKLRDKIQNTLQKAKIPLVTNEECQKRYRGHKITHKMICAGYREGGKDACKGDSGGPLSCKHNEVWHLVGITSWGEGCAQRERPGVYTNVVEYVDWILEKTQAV
Chain of Factor XIa (P03951 19-387 partner limits assumed): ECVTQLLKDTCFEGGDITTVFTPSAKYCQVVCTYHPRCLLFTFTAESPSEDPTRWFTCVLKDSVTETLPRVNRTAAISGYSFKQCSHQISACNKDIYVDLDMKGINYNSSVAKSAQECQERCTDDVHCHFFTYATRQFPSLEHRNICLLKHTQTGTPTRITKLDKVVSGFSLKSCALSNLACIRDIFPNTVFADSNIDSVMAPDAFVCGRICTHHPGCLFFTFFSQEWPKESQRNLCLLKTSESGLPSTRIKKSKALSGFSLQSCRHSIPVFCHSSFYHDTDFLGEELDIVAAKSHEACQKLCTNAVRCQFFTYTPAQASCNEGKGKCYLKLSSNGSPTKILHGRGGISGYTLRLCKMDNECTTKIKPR

Row | Compound | IC50 [1] | IC50 [2]
1 | Cn1cc2cc(NC(=O)[C@@H]3CC[C@@H]4CC(c5c(-n6cnnn6)ccc(Cl)c5F)=CC(=O)N43)ccc2n1 [ID No. 19, (3S,8aR)-7-(3-Chloro-2-fluoro-6-(1H-tetrazol-1-yl)phenyl)-N-(2-methyl-2H-indazol-5-yl)-5-oxo-1,2,3,5,8,8a-hexahydroindolizine-3-carboxamide] | 0.169 µM | 0.0394 µM
2 | C[C@H]1C[C@@H](C(=O)Nc2ccc3nccnc3c2)N2C(=O)C=C(c3c(-n4cnnn4)ccc(Cl)c3F)C[C@H]12 (single isomer, unassigned) [ID No. 80, (1S*,3S,8aR*)-7-[3-Chloro-2-fluoro-6-(tetrazol-1-yl)phenyl]-1-methyl-5-oxo-N-quinoxalin-6-yl-2,3,8,8a-tetrahydro-1H-indolizine-3-carboxamide] | 0.0595 µM | 0.0459 µM
3 | O=C(Nc1ccc2c(c1)C(F)(F)C(=O)N2)[C@@H]1CC[C@@H]2CC(c3c(-n4cnnn4)ccc(Cl)c3F)=CC(=O)N21 [ID No. 15, (3S,8aR)-7-(3-Chloro-2-fluoro-6-(1H-tetrazol-1-yl)phenyl)-N-(3,3-difluoro-2-oxoindolin-5-yl)-5-oxo-1,2,3,5,8,8a-hexahydroindolizine-3-carboxamide] | 0.0557 µM | 0.0368 µM
4 | Cn1nc2ccc(NC(=O)[C@@H]3CC[C@@H]4CC(c5c(-n6cnnn6)ccc(Cl)c5F)=CC(=O)N43)cc2n1 [ID No. 16, (3S,8aR)-7-(3-Chloro-2-fluoro-6-(1H-tetrazol-1-yl)phenyl)-N-(2-methyl-2H-benzo[d][1,2,3]triazol-5-yl)-5-oxo-1,2,3,5,8,8a-hexahydroindolizine-3-carboxamide] | 0.0453 µM | 0.025 µM
5 | O=C(Nc1ccc2c(c1)C1(CCCC1)C(=O)N2)[C@@H]1CC[C@@H]2CC(c3c(-n4cnnn4)ccc(Cl)c3F)=CC(=O)N21 [ID No. 8, (3S,8aR)-7-(3-Chloro-2-fluoro-6-(1H-tetrazol-1-yl)phenyl)-5-oxo-N-(2′-oxospiro[cyclopentane-1,3′-indolin]-5′-yl)-1,2,3,5,8,8a-hexahydroindolizine-3-carboxamide] | 0.178 µM | 0.0621 µM
6 | O=C(O)c1ccc(NC(=O)[C@@H]2CC[C@@H]3CC(c4c(-n5cnnn5)ccc(Cl)c4F)=CC(=O)N32)cc1F (single isomer, unassigned) [ID No. 52, (3S,8R*)-4-[[7-[3-Chloro-2-fluoro-6-(tetrazol-1-yl)phenyl]-5-oxo-2,3,8,8a-tetrahydro-1H-indolizine-3-carbonyl]amino]-2-fluoro-benzoic acid] | 0.0708 µM | 0.0009 µM
7 | O=C(Nc1ccc(-c2nc[nH]n2)cc1)[C@@H]1CCC2CC(c3c(-n4cnnn4)ccc(Cl)c3F)=CC(=O)N21 (mixture of isomers) [ID No. 69, (3S)-7-[3-Chloro-2-fluoro-6-(tetrazol-1-yl)phenyl]-5-oxo-N-[4-(1H-1,2,4-triazol-3-yl)phenyl]-2,3,8,8a-tetrahydro-1H-indolizine-3-carboxamide] | 0.0523 µM | 0.0073 µM
8 | CN(O)C(=O)c1ccc(NC(=O)[C@@H]2CCC3CC(c4c(-n5cnnn5)ccc(Cl)c4F)=CC(=O)N32)cc1 (mixture of isomers) [ID No. 34, (3S)-7-(3-Chloro-2-fluoro-6-(1H-tetrazol-1-yl)phenyl)-N-(4-(hydroxy(methyl)carbamoyl)phenyl)-5-oxo-1,2,3,5,8,8a-hexahydroindolizine-3-carboxamide] | 0.279 µM | 0.0363 µM

Stronger by IC50 [1], values ahead:

Row | IC50 [1] | IC50 [2] | Compound
9 | 0.0314 µM | 0.0109 µM | CO[C@@H]1C[C@@H](C(=O)Nc2ccc3nn(C)cc3c2)N2C(=O)C=C(c3c(-n4cnnn4)ccc(Cl)c3F)CC12 (mixture of isomers) [ID No. 44, (1R,3S)-7-[3-Chloro-2-fluoro-6-(tetrazol-1-yl)phenyl]-1-methoxy-N-(2-methyl-2H-indazol-5-yl)-5-oxo-2,3,8,8a-tetrahydro-1H-indolizine-3-carboxamide]
10 | 0.01 µM | 0.0003 µM | O=C(Nc1ccc(-c2nc(=O)o[nH]2)c(F)c1)[C@@H]1CCC2CC(c3c(-n4cnnn4)ccc(Cl)c3F)=CC(=O)N21 (mixture of isomers) [ID No. 42, (3S)-7-[3-Chloro-2-fluoro-6-(tetrazol-1-yl)phenyl]-N-[3-fluoro-4-(5-oxo-2H-1,2,4-oxadiazol-3-yl)phenyl]-5-oxo-2,3,8,8a-tetrahydro-1H-indolizine-3-carboxamide]
11 | 0.0361 µM | 0.0167 µM | O=C(Nc1ccc2[nH]nc(O)c2c1)[C@@H]1CCC2CC(c3c(-n4cnnn4)ccc(Cl)c3F)=CC(=O)N21 (mixture of isomers) [ID No. 57, (3S)-7-[3-Chloro-2-fluoro-6-(tetrazol-1-yl)phenyl]-N-(3-hydroxy-1H-indazol-5-yl)-5-oxo-2,3,8,8a-tetrahydro-1H-indolizine-3-carboxamide]
12 | 0.0097 µM | 0.005 µM | C[C@@H](O)c1cnc2cc(NC(=O)[C@@H]3CCC4CC(c5c(-n6cnnn6)ccc(Cl)c5F)=CC(=O)N43)ccc2n1 (relative stereo) [ID No. 1, (3S*)-7-(3-chloro-2-fluoro-6-(1H-tetrazol-1-yl)phenyl)-N-(2-((R*)-1-hydroxyethyl)quinoxalin-6-yl)-5-oxo-1,2,3,5,8,8a-hexahydroindolizine-3-carboxamide]
13 | 0.0123 µM | 0.0053 µM | CO[C@@H]1C[C@@H](C(=O)Nc2ccc3nccnc3c2)N2C(=O)C=C(c3c(-n4cnnn4)ccc(Cl)c3F)CC12 (mixture of isomers) [ID No. 46, (1R,3S)-7-[3-Chloro-2-fluoro-6-(tetrazol-1-yl)phenyl]-1-methoxy-5-oxo-N-quinoxalin-6-yl-2,3,8,8a-tetrahydro-1H-indolizine-3-carboxamide]
